This passage reports IC50 results from patent publication US20090181963A1, “3H-[1,2,3]TRIAZOLO[4,5-D]PYRIMIDINE COMPOUNDS, THEIR USE AS mTOR KINASE AND PI3 KINASE INHIBITORS, AND THEIR [sequence]” (Wyeth, priority 2008, published 2009).

The target in one assay is PI3 Kinase α (Homo sapiens, UniProt P42336). As to the kind of experiment: Fluorescence polarization assay for PI3K (PI3 Kinase α). In kind it is biochemical. The conditions noted are these: diC8-PI(4,5)P2 substrate, 25 μM ATP, one hour at 25° C.
Chain of PI3 Kinase α (P42336 whole entry): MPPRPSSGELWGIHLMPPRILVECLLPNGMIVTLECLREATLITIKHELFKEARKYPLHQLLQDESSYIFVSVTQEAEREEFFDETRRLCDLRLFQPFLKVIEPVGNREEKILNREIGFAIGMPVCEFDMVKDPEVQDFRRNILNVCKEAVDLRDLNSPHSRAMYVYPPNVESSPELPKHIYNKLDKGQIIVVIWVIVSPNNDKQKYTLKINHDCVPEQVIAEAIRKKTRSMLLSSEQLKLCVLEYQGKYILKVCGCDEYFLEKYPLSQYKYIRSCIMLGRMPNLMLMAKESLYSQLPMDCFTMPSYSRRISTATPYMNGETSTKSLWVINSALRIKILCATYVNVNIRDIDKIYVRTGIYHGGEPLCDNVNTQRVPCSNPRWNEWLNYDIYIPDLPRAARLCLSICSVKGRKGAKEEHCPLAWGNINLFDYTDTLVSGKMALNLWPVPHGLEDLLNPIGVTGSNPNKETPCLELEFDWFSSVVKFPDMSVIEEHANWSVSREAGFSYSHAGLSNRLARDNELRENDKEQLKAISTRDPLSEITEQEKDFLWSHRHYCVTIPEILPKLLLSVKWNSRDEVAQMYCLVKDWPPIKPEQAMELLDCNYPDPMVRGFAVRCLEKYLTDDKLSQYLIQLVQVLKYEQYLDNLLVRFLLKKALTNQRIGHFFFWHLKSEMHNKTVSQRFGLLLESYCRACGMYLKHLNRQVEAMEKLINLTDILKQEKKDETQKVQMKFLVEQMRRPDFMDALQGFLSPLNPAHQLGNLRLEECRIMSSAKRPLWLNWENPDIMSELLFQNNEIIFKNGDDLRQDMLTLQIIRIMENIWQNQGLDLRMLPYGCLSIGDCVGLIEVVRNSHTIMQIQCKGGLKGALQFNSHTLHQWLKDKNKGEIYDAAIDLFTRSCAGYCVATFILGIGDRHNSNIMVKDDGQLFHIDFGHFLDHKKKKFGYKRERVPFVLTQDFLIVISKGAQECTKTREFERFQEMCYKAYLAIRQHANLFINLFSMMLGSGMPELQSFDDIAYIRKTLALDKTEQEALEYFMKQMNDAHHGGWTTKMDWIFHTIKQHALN
Chain of PI3 Kinase α (P27986 whole entry partner): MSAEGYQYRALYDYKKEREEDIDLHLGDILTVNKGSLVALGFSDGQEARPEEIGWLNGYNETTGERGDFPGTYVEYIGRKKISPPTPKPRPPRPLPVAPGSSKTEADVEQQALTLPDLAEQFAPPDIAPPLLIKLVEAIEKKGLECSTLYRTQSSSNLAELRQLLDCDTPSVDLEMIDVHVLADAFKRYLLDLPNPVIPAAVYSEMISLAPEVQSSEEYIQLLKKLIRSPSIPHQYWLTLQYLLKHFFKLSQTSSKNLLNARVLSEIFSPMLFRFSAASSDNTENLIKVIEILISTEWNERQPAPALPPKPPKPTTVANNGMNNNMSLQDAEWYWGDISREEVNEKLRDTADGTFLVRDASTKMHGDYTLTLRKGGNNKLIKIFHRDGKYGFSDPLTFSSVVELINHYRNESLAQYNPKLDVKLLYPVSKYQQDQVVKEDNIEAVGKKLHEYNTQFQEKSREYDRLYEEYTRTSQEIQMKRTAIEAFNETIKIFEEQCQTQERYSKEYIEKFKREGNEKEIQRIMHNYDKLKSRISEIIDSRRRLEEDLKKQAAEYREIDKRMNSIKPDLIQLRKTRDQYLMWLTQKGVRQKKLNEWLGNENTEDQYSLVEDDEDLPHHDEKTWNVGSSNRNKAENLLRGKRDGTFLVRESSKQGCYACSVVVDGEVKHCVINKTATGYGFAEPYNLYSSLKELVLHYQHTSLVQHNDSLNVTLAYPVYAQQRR
Another assay addresses PI3 Kinase γ (Homo sapiens, UniProt P48736). As to the kind of experiment: Fluorescence polarization assay for PI3K (PI3 Kinase γ). In kind it is biochemical. Particulars: diC8-PI(4,5)P2 substrate, 25 μM ATP, one hour at 25° C. On the technique in general: Polarisation of emitted light reports the rotation of a fluorescent probe.

A word on the IC50: it is the point on the concentration scale where inhibition reaches its midpoint. A high value points to a need for much substance.

Chain of PI3 Kinase γ (P48736 whole entry): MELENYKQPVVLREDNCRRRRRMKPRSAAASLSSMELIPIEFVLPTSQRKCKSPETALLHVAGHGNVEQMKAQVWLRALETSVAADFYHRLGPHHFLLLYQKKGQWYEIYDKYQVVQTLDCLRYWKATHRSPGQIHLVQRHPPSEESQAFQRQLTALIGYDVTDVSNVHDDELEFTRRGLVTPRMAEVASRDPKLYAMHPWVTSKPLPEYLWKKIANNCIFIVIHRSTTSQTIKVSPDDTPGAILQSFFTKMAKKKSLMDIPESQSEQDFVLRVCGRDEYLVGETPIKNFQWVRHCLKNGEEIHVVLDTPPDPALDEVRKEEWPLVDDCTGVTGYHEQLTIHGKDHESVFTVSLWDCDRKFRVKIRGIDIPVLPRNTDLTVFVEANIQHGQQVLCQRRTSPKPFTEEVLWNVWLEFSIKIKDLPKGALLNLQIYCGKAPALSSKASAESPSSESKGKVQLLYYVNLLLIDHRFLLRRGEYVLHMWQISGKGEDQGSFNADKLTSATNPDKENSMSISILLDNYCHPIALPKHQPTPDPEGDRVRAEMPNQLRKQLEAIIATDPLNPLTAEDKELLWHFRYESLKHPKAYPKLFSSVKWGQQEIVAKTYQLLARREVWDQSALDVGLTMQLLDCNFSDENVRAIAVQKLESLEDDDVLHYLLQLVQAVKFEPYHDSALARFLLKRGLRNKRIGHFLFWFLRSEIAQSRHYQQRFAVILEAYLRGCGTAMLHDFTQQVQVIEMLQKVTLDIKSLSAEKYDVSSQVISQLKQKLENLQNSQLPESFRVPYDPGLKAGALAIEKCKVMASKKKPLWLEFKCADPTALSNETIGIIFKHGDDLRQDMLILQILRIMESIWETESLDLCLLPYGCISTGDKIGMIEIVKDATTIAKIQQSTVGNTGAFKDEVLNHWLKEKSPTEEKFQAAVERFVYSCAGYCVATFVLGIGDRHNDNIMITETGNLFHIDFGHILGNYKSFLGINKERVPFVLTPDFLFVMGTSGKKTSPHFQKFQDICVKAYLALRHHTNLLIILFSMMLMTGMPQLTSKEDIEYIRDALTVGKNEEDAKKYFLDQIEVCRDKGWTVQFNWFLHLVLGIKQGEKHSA

Regarding `O=C(Cc1ccccc1)N1CCN(CCn2nnc3c(N4CCOCC4)nc(-c4cccc(O)c4)nc32)CC1` [Example 104, 3-(7-morpholin-4-yl-3-{2-[4-(phenylacetyl)piperazin-1-yl]ethyl}-3H-[1,2,3]triazolo[4,5-d]pyrimidin-5-yl)phenol], the IC50 against PI3 Kinase α is 1170 nM; on PI3 Kinase γ, 3030 nM.

For the compound `Oc1cccc(-c2nc(N3CCOCC3)c3nnn(CCCN4CCCC4)c3n2)c1` [Example 9, 3-[7-morpholin-4-yl-3-(3-pyrrolidin-1-ylpropyl)-3H-[1,2,3]triazolo[4,5-d]pyrimidin-5-yl]phenol], the figures for the IC50 against PI3 Kinase α and on PI3 Kinase γ were 57 nM and 242 nM, respectively.

`O=C(NCCCN1CCCC1)c1ccc(Cn2nnc3c(N4CCOCC4)nc(-c4cccc(O)c4)nc32)cc1` [Example 211, 4-{[5-(3-hydroxyphenyl)-7-morpholin-4-yl-3H-[1,2,3]triazolo[4,5-d]pyrimidin-3-yl]methyl}-N-(3-pyrrolidin-1-ylpropyl)benzamide]: the values for the IC50 against PI3 Kinase α and at PI3 Kinase γ were 289 nM and 2730 nM, respectively.

With `O=C(c1ccc(F)cc1)N1CCN(CCn2nnc3c(N4CCOCC4)nc(-c4cccc(O)c4)nc32)CC1` [Example 101, 3-(3-{2-[4-(4-fluorobenzoyl)piperazin-1-yl]ethyl}-7-morpholin-4-yl-3H-[1,2,3]triazolo[4,5-d]pyrimidin-5-yl)phenol], the IC50 is 538 nM against PI3 Kinase α and 3550 nM on PI3 Kinase γ.

As for `CN(C)CCNC(=O)Nc1ccc(-c2nc(N3CCOCC3)c3nnn(C4CCN(Cc5ccc[nH]5)CC4)c3n2)cc1` [Example 161, 1-(4-(3-(1-((1H-pyrrol-2-yl)methyl)piperidin-4-yl)-7-morpholino-3H-[1,2,3]triazolo[4,5-d]pyrimidin-5-yl)phenyl)-3-(2-(dimethylamino)ethyl)urea], the IC50 is 80 nM against PI3 Kinase α and 286 nM at PI3 Kinase γ.

As for `CCn1nnc2c(N3CCOCC3)nc(-c3ccc(NC(=O)Nc4ccc(C(=O)O)cc4)cc3)nc21` [Example 42, 4-({[4-(3-ethyl-7-morpholin-4-yl-3H-[1,2,3]triazolo[4,5-d]pyrimidin-5-yl)phenyl]carbamoyl}amino)benzoic acid], the IC50 at PI3 Kinase α is 10.5 nM; at PI3 Kinase γ it was 35.3 nM.

In the case of `CCCCN1CCN(CCn2nnc3c(N4CCOCC4)nc(-c4cccc(O)c4)nc32)CC1` [Example 107, 3-{3-[2-(4-butylpiperazin-1-yl)ethyl]-7-morpholin-4-yl-3H-[1,2,3]triazolo[4,5-d]pyrimidin-5-yl}phenol], the IC50 is 1040 nM on PI3 Kinase α and 2490 nM against PI3 Kinase γ.

`Oc1cncc(-c2nc(N3CCOCC3)c3nnn(C4CCN(CN5CCN(Cc6ccccc6)CC5)CC4)c3n2)c1` [Example 28, 5-(3-{1-[(4-benzylpiperazin-1-yl)methyl]piperidin-4-yl}-7-morpholin-4-yl-3H-[1,2,3]triazolo[4,5-d]pyrimidin-5-yl)pyridin-3-ol]: the IC50 against PI3 Kinase α worked out at 998 nM; at PI3 Kinase γ it was 8830 nM.

As for `O=C(Nc1ccc(-c2nc(N3CCOCC3)c3nnn(CCO)c3n2)cc1)Nc1cccnc1` [Example 184, 1-{4-[3-(2-hydroxyethyl)-7-morpholin-4-yl-3H-[1,2,3]triazolo[4,5-d]pyrimidin-5-yl]phenyl}-3-pyridin-3-ylurea], the figures for the half-maximal inhibitory concentration (IC50) on PI3 Kinase α and against PI3 Kinase γ were 20 nM and 47 nM, respectively.

With `Cn1cncc1CN1CCC(n2nnc3c(N4CCOCC4)nc(-c4cncc(O)c4)nc32)CC1` [Example 24, 5-(3-{1-[(1-methyl-1H-imidazol-5-yl)methyl]piperidin-4-yl}-7-morpholin-4-yl-3H-[1,2,3]triazolo[4,5-d]pyrimidin-5-yl)pyridin-3-ol], the IC50 was 86 nM against PI3 Kinase α and 219 nM against PI3 Kinase γ.

With `Cc1ccc(NC(=O)Nc2ccc(-c3nc(N4CCOCC4)c4nnn(C(C)C)c4n3)cc2)cc1` [Example 90, 1-(4-methyl-phenyl)-3-[4-(3-isopropyl-7-morpholin-4-yl-3H-[1,2,3]triazolo[4,5-d]pyrimidin-5-yl)-phenyl]-urea], the figures for the IC50 on PI3 Kinase α and on PI3 Kinase γ were 34.5 nM and 100 nM, respectively.

Turning to `CCn1nnc2c(N3CCOCC3)nc(-c3ccc(NC(=O)Nc4ccc(C(N)=O)cc4)cc3)nc21` [Example 60, 4-({[4-(3-ethyl-7-morpholin-4-yl-3H-[1,2,3]triazolo[4,5-d]pyrimidin-5-yl)phenyl]carbamoyl}amino)benzamide], the results for the IC50 against PI3 Kinase α and against PI3 Kinase γ were under 2.6 nM and 16.5 nM, respectively.

For the compound `CC(C)(C)OC(=O)N1CC(n2nnc3c(N4CCOCC4)nc(-c4cccc(O)c4)nc32)C1` [Example 124, tert-butyl 3-[5-(3-hydroxyphenyl)-7-morpholin-4-yl-3H-[1,2,3]triazolo[4,5-d]pyrimidin-3-yl]azetidine-1-carboxylate], the IC50 on PI3 Kinase α came out at 108 nM; at PI3 Kinase γ it was 890 nM.

Consider `O=C(NCCN1CCCC1)c1ccc(Cn2nnc3c(N4CCOCC4)nc(-c4cccc(O)c4)nc32)cc1` [Example 213, 4-{[5-(3-hydroxyphenyl)-7-morpholin-4-yl-3H-[1,2,3]triazolo[4,5-d]pyrimidin-3-yl]methyl}-N-(2-pyrrolidin-1-ylethyl)benzamide], for which the IC50 against PI3 Kinase α is 282 nM; on PI3 Kinase γ, 1380 nM.

Regarding `Nc1ccccc1C(=O)N1CC(n2nnc3c(N4CCOCC4)nc(-c4cccc(O)c4)nc32)C1` [Example 126, (2-amino-phenyl)-{3-[5-(3-hydroxy-phenyl)-7-morpholin-4-yl-[1,2,3]triazolo[4,5-d]pyrimidin-3-yl]-azetidin-1-yl}-methanone], the IC50 at PI3 Kinase α turned out to be 60.5 nM; at PI3 Kinase γ, 873 nM.

Regarding `O=C(Cn1nnc2c(N3CCOCC3)nc(-c3cccc(CO)c3)nc21)Nc1ccc(F)cc1` [Example 238, N-(4-fluorophenyl)-2-{5-[3-(hydroxymethyl)phenyl]-7-morpholin-4-yl-3H-[1,2,3]triazolo[4,5-d]pyrimidin-3-yl}acetamide], the IC50 against PI3 Kinase α worked out at 245 nM; against PI3 Kinase γ, 2070 nM.

Take `CNC(=O)Nc1ccc(-c2nc(N3CCOCC3)c3nnn(C(C)C)c3n2)cc1` [Example 91, 1-[4-(3-isopropyl-7-morpholin-4-yl-3H-[1,2,3]triazolo[4,5-d]pyrimidin-5-yl)-phenyl]-3-methyl-urea]: the IC50 was 41.5 nM at PI3 Kinase α and 409 nM against PI3 Kinase γ.

Regarding `CCn1nnc2c(N3CCOCC3)nc(-c3ccc(NC(=O)Nc4ccc(C(=O)NCCN5CCN(C)CC5)cc4)cc3)nc21` [Example 49, 4-({[4-(3-ethyl-7-morpholin-4-yl-3H-[1,2,3]triazolo[4,5-d]pyrimidin-5-yl)phenyl]carbamoyl}amino)-N-[2-(4-methylpiperazin-1-yl)ethyl]benzamide], the IC50 was under 3.1 nM against PI3 Kinase α and 25 nM on PI3 Kinase γ.

As for `CN(C)c1ccc(NC(=O)Nc2ccc(-c3nc(N4CCOCC4)c4nnn(CC(F)(F)F)c4n3)cc2)cc1` [Example 137, 1-[4-(dimethylamino)phenyl]-3-{4-[7-morpholin-4-yl-3-(2,2,2-trifluoroethyl)-3H-[1,2,3]triazolo[4,5-d]pyrimidin-5-yl]phenyl}urea], the IC50 at PI3 Kinase α was determined as 13 nM; against PI3 Kinase γ, 30.5 nM.

Take `O=C(Cn1nnc2c(N3CCOCC3)nc(-c3cccc(CO)c3)nc21)Nc1cccnc1` [Example 235, 2-{5-[3-(hydroxymethyl)phenyl]-7-morpholin-4-yl-3H-[1,2,3]triazolo[4,5-d]pyrimidin-3-yl}-N-pyridin-3-ylacetamide]: the IC50 is 637 nM on PI3 Kinase α and 2230 nM on PI3 Kinase γ.

For the compound `O=C(NCC(O)c1ccccc1)c1ccc(Cn2nnc3c(N4CCOCC4)nc(-c4cccc(O)c4)nc32)cc1` (stereo not drawn) [Example 226, N-(2-hydroxy-2-phenylethyl)-4-{[5-(3-hydroxyphenyl)-7-morpholin-4-yl-3H-[1,2,3]triazolo[4,5-d]pyrimidin-3-yl]methyl}benzamide], the IC50 at PI3 Kinase α turned out to be 126 nM; at PI3 Kinase γ, 958 nM.

Regarding `Oc1cncc(-c2nc(N3CCOCC3)c3nnn(C4CCN(Cc5ccc(Cl)nc5)CC4)c3n2)c1` [Example 20, 5-(3-{1-[(6-chloropyridin-3-yl)methyl]piperidin-4-yl}-7-morpholin-4-yl-3H-[1,2,3]triazolo[4,5-d]pyrimidin-5-yl)pyridin-3-ol], the IC50 on PI3 Kinase α is 541 nM; against PI3 Kinase γ, 454 nM.

On to `CCn1nnc2c(N3CCOCC3)nc(-c3ccc(NC(=O)Nc4ccc(C(=O)N5CCC(N6CCCCC6)CC5)cc4)cc3)nc21` [Example 50, 1-[4-(1,4′-bipiperidin-1′-ylcarbonyl)phenyl]-3-[4-(3-ethyl-7-morpholin-4-yl-3H-[1,2,3]triazolo[4,5-d]pyrimidin-5-yl)phenyl]urea], for which the IC50 stood at 1.8 nM on PI3 Kinase α and 18 nM on PI3 Kinase γ.

Take `O=C(O)Cn1nnc2c(N3CCOCC3)nc(-c3cccc(O)c3)nc21` [Example 245, [5-(3-hydroxyphenyl)-7-morpholin-4-yl-3H-[1,2,3]triazolo[4,5-d]pyrimidin-3-yl]acetic acid]: the IC50 worked out at 298 nM at PI3 Kinase α and 1940 nM against PI3 Kinase γ.

On to `O=C(Nc1ccc(-c2nc(N3CCOCC3)c3nnn(CC(F)(F)F)c3n2)cc1)Nc1cccs1` [Example 141, 1-{4-[7-morpholin-4-yl-3-(2,2,2-trifluoroethyl)-3H-[1,2,3]triazolo[4,5-d]pyrimidin-5-yl]phenyl}-3-(2-thienyl)urea], for which the IC50 is 6.5 nM against PI3 Kinase α and 30 nM on PI3 Kinase γ.

In the case of `CCn1nnc2c(N3CCOC[C@@H]3C)nc(-c3ccc(NC(=O)Nc4ccc(C#N)cc4)cc3)nc21` [Example 75, (S)-1-(4-cyanophenyl)-3-(4-(3-ethyl-7-(3-methylmorpholino)-3H-[1,2,3]triazolo[4,5-d]pyrimidin-5-yl)phenyl)urea], the 50% inhibitory concentration (IC50) was 13.5 nM at PI3 Kinase α and 92.5 nM against PI3 Kinase γ.

As for `O=C(c1ccc(Cn2nnc3c(N4CCOCC4)nc(-c4cccc(O)c4)nc32)cc1)N1CCCCC1` [Example 227, 3-{7-morpholin-4-yl-3-[4-(piperidin-1-ylcarbonyl)benzyl]-3H-[1,2,3]triazolo[4,5-d]pyrimidin-5-yl}phenol], the concentration for half-maximal inhibition (IC50) at PI3 Kinase α was determined as 1130 nM; on PI3 Kinase γ, 950 nM.
